Where two headings read alike, the source gives them in different places.
Columns and labels:
GST-MCL-1 = GST-MCL-1 (Homo sapiens, UniProt Q07820); assay: TR-FRET MCL-1 binding assay (competition with probe F-Bak)
Experimental: Tb-anti-GST antibody was purchased from Invitrogen (Catalog No. PV4216).
For the assay, an acoustic dispenser was used to prepare dilution series from 10 mM test compounds in 100% DMSO and directly transfer 160 nL into low volume 384-well assay plates. 8 μL of a protein/probe/antibody mix was then added to each well resulting in final concentrations listed below: • Test compound: 11 three-fold dilutions beginning at 25 μM
The samples were then mixed on a shaker for 1 minute and incubated for an additional 2 hours at room temperature. For each assay plate, a probe/antibody and protein/antibody/probe mixture were included as a negative and a positive control, respectively. Fluorescence was measured on the Envision (Perkin Elmer) using a 340/35 nm excitation filter and 520/525 (F-Bak) and 495/510 nm (Tb-labeled anti-his antibody) emission filters. […] The TR-FRET assay can be performed in the presence of varying concentrations of human serum (HS) or fetal bovine serum (FBS). Compounds were tested both without HS and in the presence of 10% HS.

[1] = tested on: NCI-H929 human multiple myeloma tumor cell line; assay: NCI-H929 cell viability assay (CellTiter-Glo, 24 hours); format: cell-based
[2] = tested on: AMO-1 human multiple myeloma tumor cell line; assay: AMO-1 cell viability assay (CellTiter-Glo, 24 hours); format: cell-based
[3] = MCL-1 Binding Ki (nM, 10% HS), in the presence of 10% HS (human serum)
[4] = without HS, read-out: MCL-1 Binding Ki
[5] = Homo sapiens, NCI-H929, 24 h, read-out: H929 Viability IC50 (μM, 10% FBS), 10% FBS, 24 hours of compound treatment
[6] = Homo sapiens, AMO1, 24 h, read-out: AMO-1 Viability IC50 (μM, 10% FBS), 10% FBS, 24 hours of compound treatment
[7] = read-out: H929 Viability IC50 (μM, 10% FBS), 10% FBS, 24 hours of compound treatment
[8] = read-out: AMO-1 Viability IC50 (μM, 10% FBS), 10% FBS, 24 hours of compound treatment

Chain of GST-MCL-1 (Q07820 whole entry): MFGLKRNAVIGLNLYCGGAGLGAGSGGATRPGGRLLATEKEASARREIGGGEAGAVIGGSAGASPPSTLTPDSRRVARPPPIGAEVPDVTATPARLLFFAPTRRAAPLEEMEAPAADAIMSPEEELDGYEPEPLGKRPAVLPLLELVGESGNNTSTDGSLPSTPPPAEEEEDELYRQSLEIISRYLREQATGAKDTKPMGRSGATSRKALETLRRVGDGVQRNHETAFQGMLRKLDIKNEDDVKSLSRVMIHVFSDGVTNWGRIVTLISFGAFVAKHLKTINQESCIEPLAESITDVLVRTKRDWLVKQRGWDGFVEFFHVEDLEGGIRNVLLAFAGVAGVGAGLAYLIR

Row | SMILES | Ki (GST-MCL-1; [3]) [nM] | Ki (GST-MCL-1; [4]) [nM] | IC50 [1, 5] [µM] | IC50 [2, 6] [µM] | IC50 [1, 7] [µM] | IC50 [2, 8] [µM]
1 | COCCOCCOCCOCCOCCOCC1(F)CC=C(c2nccc(COc3ccc4cc3C[C@H](C(=O)O)Oc3ncnc5sc(-c6ccc(F)cc6)c(c35)-c3c(C)c(Cl)c(c(Cl)c3C)O[C@H](CN3CCN(C)CC3)CO4)n2)CC1 (single isomer, unassigned) [Example 97, (7R,16R)-19,23-dichloro-10-({2-[(4S*)-4-fluoro-4-(2,5,8,11,14,17-hexaoxaoctadecan-1-yl)cyclohex-1-en-1-yl]pyrimidin-4-yl}methoxy)-1-(4-fluorophenyl)-20,22-dimethyl-16-[(4-methylpiperazin-1-yl)methyl]-7,8,15,16-tetrahydro-18,21-etheno-13,9-(metheno)-6,14,17-trioxa-2-thia-3,5-diazacyclononadeca[1,2,3-cd]indene-7-carboxylic Acid] | 0.137 | 0.016 | 0.000482 | 0.0006 |  | 
2 | COCCOCCOCCOCCOCCOCC1(F)CC=C(c2nccc(COc3ccc4cc3C[C@H](C(=O)O)Oc3ncnc5sc(-c6ccc(F)cc6)c(c35)-c3c(C)c(Cl)c(c(Cl)c3C)O[C@H](CN3CCN(C)CC3)CO4)n2)CC1 (single isomer, unassigned) [Example 100, (7R,16R)-19,23-dichloro-10-({2-[(4R*)-4-fluoro-4-(2,5,8,11,14,17-hexaoxaoctadecan-1-yl)cyclohex-1-en-1-yl]pyrimidin-4-yl}methoxy)-1-(4-fluorophenyl)-20,22-dimethyl-16-[(4-methylpiperazin-1-yl)methyl]-7,8,15,16-tetrahydro-18,21-etheno-13,9-(metheno)-6,14,17-trioxa-2-thia-3,5-diazacyclononadeca[1,2,3-cd]indene-7-carboxylic Acid] | 0.176 | 0.017 |  |  | 0.000547 | 0.00033
3 | COCCOCCOCCOCC1(F)CC=C(c2nccc(COc3ccc4cc3C[C@H](C(=O)O)Oc3ncnc5sc(-c6ccc(F)cc6)c(c35)-c3c(C)c(Cl)c(c(Cl)c3C)O[C@H](CN3CCN(C)CC3)CO4)n2)CC1 (single isomer, unassigned) [Example 101, (7R,16R)-19,23-dichloro-1-(4-fluorophenyl)-10-({2-[(4S*)-4-fluoro-4-(2,5,8,11-tetraoxadodecan-1-yl)cyclohex-1-en-1-yl]pyrimidin-4-yl}methoxy)-20,22-dimethyl-16-[(4-methylpiperazin-1-yl)methyl]-7,8,15,16-tetrahydro-18,21-etheno-13,9-(metheno)-6,14,17-trioxa-2-thia-3,5-diazacyclononadeca[1,2,3-cd]indene-7-carboxylic Acid] | 0.235 | 0.02 | 0.000298 | 0.000195 |  | 
4 | COCCOCCOCCOCCOCC1(F)CC=C(c2nccc(COc3ccc4cc3C[C@H](C(=O)O)Oc3ncnc5sc(-c6ccc(F)cc6)c(c35)-c3c(C)c(Cl)c(c(Cl)c3C)O[C@H](CN3CCN(C)CC3)CO4)n2)CC1 (single isomer, unassigned) [Example 106, (7R,16R)-19,23-dichloro-10-({2-[(4R*)-4-fluoro-4-(2,5,8,11,14-pentaoxapentadecan-1-yl)cyclohex-1-en-1-yl]pyrimidin-4-yl}methoxy)-1-(4-fluorophenyl)-20,22-dimethyl-16-[(4-methylpiperazin-1-yl)methyl]-7,8,15,16-tetrahydro-18,21-etheno-13,9-(metheno)-6,14,17-trioxa-2-thia-3,5-diazacyclononadeca[1,2,3-cd]indene-7-carboxylic Acid] | 0.166 | 0.036 | 0.000288 | 0.000216 |  | 
5 | COCCOCCOCCOCC1(F)CC=C(c2nccc(COc3ccc4cc3C[C@H](C(=O)O)Oc3ncnc5sc(-c6ccc(F)cc6)c(c35)-c3c(C)c(Cl)c(c(Cl)c3C)O[C@H](CN3CCN(C)CC3)CO4)n2)CC1 (single isomer, unassigned) [Example 111, (7R,16R)-19,23-dichloro-1-(4-fluorophenyl)-10-({2-[(4R*)-4-fluoro-4-(2,5,8,11-tetraoxadodecan-1-yl)cyclohex-1-en-1-yl]pyrimidin-4-yl}methoxy)-20,22-dimethyl-16-[(4-methylpiperazin-1-yl)methyl]-7,8,15,16-tetrahydro-18,21-etheno-13,9-(metheno)-6,14,17-trioxa-2-thia-3,5-diazacyclononadeca[1,2,3-cd]indene-7-carboxylic Acid] | 0.101 | 0.014 |  |  | 0.000298 | 0.000161
6 | COCCOCCOCCOCC1(C)CC=C(c2nccc(COc3ccc4cc3C[C@H](C(=O)O)Oc3ncnc5sc(-c6ccc(F)cc6)c(c35)-c3c(C)c(Cl)c(c(Cl)c3C)O[C@H](CN3CCN(C)CC3)CO4)n2)CC1 (single isomer, unassigned) [Example 112, (7R,16R)-19,23-dichloro-1-(4-fluorophenyl)-20,22-dimethyl-16-[(4-methylpiperazin-1-yl)methyl]-10-({2-[(4R*)-4-methyl-4-(2,5,8,11-tetraoxadodecan-1-yl)cyclohex-1-en-1-yl]pyrimidin-4-yl}methoxy)-7,8,15,16-tetrahydro-18,21-etheno-13,9-(metheno)-6,14,17-trioxa-2-thia-3,5-diazacyclononadeca[1,2,3-cd]indene-7-carboxylic Acid] | 0.217 | 0.012 | 0.000283 | 0.000132 |  | 
7 | COCCOCCOCCOCCOCC1(F)CC=C(c2nccc(COc3ccc4cc3C[C@H](C(=O)O)Oc3ncnc5sc(-c6ccc(F)cc6)c(c35)-c3c(C)c(Cl)c(c(Cl)c3C)O[C@H](CN3CCN(C)CC3)CO4)n2)CC1 (single isomer, unassigned) [Example 114, (7R,16R)-19,23-dichloro-10-({2-[(4S*)-4-fluoro-4-(2,5,8,11,14-pentaoxapentadecan-1-yl)cyclohex-1-en-1-yl]pyrimidin-4-yl}methoxy)-1-(4-fluorophenyl)-20,22-dimethyl-16-[(4-methylpiperazin-1-yl)methyl]-7,8,15,16-tetrahydro-18,21-etheno-13,9-(metheno)-6,14,17-trioxa-2-thia-3,5-diazacyclononadeca[1,2,3-cd]indene-7-carboxylic Acid] | 0.15 | 0.018 |  |  | 0.000331 | 0.000197
8 | COCCOCCOCCOCC1(C)CC=C(c2nccc(COc3ccc4cc3C[C@H](C(=O)O)Oc3ncnc5sc(-c6ccc(F)cc6)c(c35)-c3c(C)c(Cl)c(c(Cl)c3C)O[C@H](CN3CCN(C)CC3)CO4)n2)CC1 (single isomer, unassigned) [Example 119, (7R,16R)-19,23-dichloro-1-(4-fluorophenyl)-20,22-dimethyl-16-[(4-methylpiperazin-1-yl)methyl]-10-({2-[(4S*)-4-methyl-4-(2,5,8,11-tetraoxadodecan-1-yl)cyclohex-1-en-1-yl]pyrimidin-4-yl}methoxy)-7,8,15,16-tetrahydro-18,21-etheno-13,9-(metheno)-6,14,17-trioxa-2-thia-3,5-diazacyclononadeca[1,2,3-cd]indene-7-carboxylic Acid] | 0.16 | 0.004 |  |  | 0.000333 | 0.000181
9 | COCCOCCOCCOCC1(F)CC=C(c2nccc(COc3ccc4cc3C[C@H](C(=O)O)Oc3ncnc5sc(C6=CCCC6)c(c35)-c3c(C)c(Cl)c(c(Cl)c3C)O[C@H](CN3CCN(C)CC3)CO4)n2)CC1 (single isomer, unassigned) [Example 125, (7R,16R)-19,23-dichloro-1-(cyclopent-1-en-1-yl)-10-({2-[(4S*)-4-fluoro-4-(2,5,8,11-tetraoxadodecan-1-yl)cyclohex-1-en-1-yl]pyrimidin-4-yl}methoxy)-20,22-dimethyl-16-[(4-methylpiperazin-1-yl)methyl]-7,8,15,16-tetrahydro-18,21-etheno-13,9-(metheno)-6,14,17-trioxa-2-thia-3,5-diazacyclononadeca[1,2,3-cd]indene-7-carboxylic Acid] | 0.455 | 0.037 | 0.00111 | 0.000288 |  | 
10 | COCCOCCOCC1(F)CC=C(c2nccc(COc3ccc4cc3C[C@H](C(=O)O)Oc3ncnc5sc(C6CCC6)c(c35)-c3c(C)c(Cl)c(c(Cl)c3C)O[C@H](CN3CCN(C)CC3)CO4)n2)CC1 (single isomer, unassigned) [Example 130, (7R,16R)-19,23-dichloro-1-cyclobutyl-10-({2-[(4R*)-4-fluoro-4-{[2-(2-methoxyethoxy)ethoxy]methyl}cyclohex-1-en-1-yl]pyrimidin-4-yl}methoxy)-20,22-dimethyl-16-[(4-methylpiperazin-1-yl)methyl]-7,8,15,16-tetrahydro-18,21-etheno-13,9-(metheno)-6,14,17-trioxa-2-thia-3,5-diazacyclononadeca[1,2,3-cd]indene-7-carboxylic Acid] | 1.74 | 0.026 | 0.000489 | 0.000309 |  | 

Reference: patent publication US20250313572A1, “MACROCYCLIC MCL-1 INHIBITORS AND METHODS OF USE” (AbbVie Inc., priority 2017, published 2025)
